# Patent US20090081183A1, “HIV Transcription Repressor Complex and Compositions and Methods Based Thereon” (priority 1997, published 2009)
# Where two headings read alike, the source gives them in different places.
# What was measured:
# HIV-1 LTR [1] = experiment: Tat-activated integrated LTR-CAT reporter assay in HeLa-CD4-LTR cells; assay type: cell-based
# Description: (§1) Cell lines transfections and assays. Transfections of HeLa cells were performed as previously described (49). HeLa-CD4-LTR (9) cells were grown in DMEM supplemented with 10% FCS and transfected with 20 μg plasmid DNA (prepared using EndoFree plasmid kit, Qiagen, Valencia, Calif.) by calcium phosphate coprecipitation as per manufacturer's instructions (ProFection system, Promega, Madison, Wis.). After 30 minutes at room temperature, the solution was added to the cells (2.5-4×10^5 cells/plate). Twelve hours after transfection, the cells were washed with PBS and fed fresh medium. Forty-eight hours later the cells were harvested, cellular extracts prepared, and CAT assays performed as previously described (49). To control for the effect of transcription factor overexpression on general cellular promoters a reporter construct driven by the beta-actin promoter, pH[…]-actin-luciferase (66), was used in cotransfection and CAT expression normalized for luciferase activity. Other plasmids used have been previously described (2, 49). […] Up to 30 μl of cellular extract (normalized for protein concentration) in a final volume of 130 μl was used for luciferase reactions.
# The LTR reporter carried by HeLa-CD4-LTR cell line exists within the native chromatin structure of the genome. […]
# HIV-1 = details: HeLa cells cotransfected with pNL4-3 (CXCR4) or pYU-2 (CCR5)
# Description: For virus production experiments 2×10^4 HeLa cells were transfected with 10 μl of Superfect (Qiagen, Valencia, Calif.) and 2.5-3.0 μg of DNA in a volume of 0.6 ml for 3 hours, washed with PBS, and then grown in 2 ml. Aliquots of culture medium were sampled for detection of HIV-1 p24^gag protein by antigen capture enzyme-linked immunosorbent assay according to the manufacturer's instructions (Coulter Corporation, Hialeah, Fla.).
# As these cells support HIV replication but cannot be infected, a measurement of the effect of YY1 on a single round of viral replication can be made.
# The influence of YY1 on viral production was assayed by testing of culture supernatant for the presence of the viral protein p24^gag.
# HIV-1 LTR [2] = experiment: Tat-activated, LTR-driven CAT expression, plasmid-based reporter, transient cotransfection; assay type: cell-based; details: data not shown
# Description: as §1
# [3] = system: RCS oligonucleotide (−10 to +27 of HIV-1 LTR); assay type: binding
compound,measurement,setting,value
"CC(/C=C/C(=O)NO)=C\[C@@H](C)C(=O)c1ccc(N(C)C)cc1 [trichostatin-A, reference compound]",Effect on YY1-mediated repression of integrated LTR-CAT expression,"HIV-1 LTR [1]; with YY1 transfection, trichostatin-A added to culture medium (data not shown)",blocked
YY1: cellular transcription factor that binds the RCS and inhibits LTR-driven HIV transcription (SEQ ID NO: 3),Tat-activated CAT expression from integrated LTR reporter,"HIV-1 LTR [1]; 200 ng pAR-Tat, 2.5 μg CMV expression plasmid, normalized to β-actin-luciferase",inhibited Tat-activated CAT activity
same,HIV-1 production (p24gag in culture supernatant),HIV-1,dose-dependent inhibition
same,"Tat-activated, LTR-driven CAT expression (plasmid-based reporter)",HIV-1 LTR [2],"inhibited Tat-activated, LTR-driven CAT expression"
same,Complex formation with the RCS in EMSA,[3]; 20 ng to 100 ng added in the presence of 10 ng of LSF,increasing levels of complex formation
same,Complex formation with the RCS in EMSA,[3]; up to 100 ng protein alone,did not form a detectable complex
